Results from paper PMC7555276, “Using Ex Vivo Porcine Jejunum to Identify Membrane Transporter Substrates: A Screening Tool for Early—Stage Drug Development” (Biomedicines, 2020).
≈ marks a conversion by molar mass, not a printed value. Where two headings read alike, the source gives them in different places.

Legend:
[1] = Ussing chamber permeation across ex vivo porcine jejunum; format: in vitro ADME, pig; details: female, Swiss noble, pig
Text: (§1) Fresh jejunum from female, 6 month-old Swiss noble pigs was harvested immediately after slaughter (Abattoir de […], Switzerland and Abattoir de Loëx; Bernex, Switzerland). […] Briefly, the intestine was opened along the mesenteric border and carefully rinsed with ice-cold KBR. […] A six Ussing chamber system was used for the intestinal transport experiments (Physiologic Instruments; San Diego, CA, USA). The Ussing chambers were set up on a heating block connected to a VCC MC6 MultiChannel voltage-current clamp via six input modules, containing integral dummy membranes. A temperature of 38 °C (porcine body temperature) was maintained using a circulating water bath (ED-5, Julabo GmbH, Seelbach, Germany). The Ussing chamber system was set up following the protocol of […] et al. […] In a first step, the acceptor and donor compartments of the Ussing chamber were filled with preheated KBR, and any voltage difference between the electrodes and the electrical resistance due to the buffer solution was eliminated. […] The choice of all substrates and inhibitors was based on the University of California, San Francisco-Food and Drug Administration (UCSF-FDA) TransPortal. The substrates tested, their physicochemical properties and the inhibitors used are described in Table 1. […] The integrity of the intestinal tissue was monitored throughout the experiment by measurement of the transepithelial resistance (TEER). […] At the end of the experiment, samples were taken from the acceptor and the donor compartment. The intestinal tissue was cut into little pieces and extracted for 6 h at room temperature in the mobile phase used for the UHPLC-MS/MS analysis (see Supplementary Information). […] Mass spectrometry was performed in multiple reaction monitoring (MRM) mode. All details of the analytical methods used for each of the molecules tested can be found in the Supplementary Information.

ex vivo porcine jejunum = assay: as above; format: in vitro ADME, pig; details: for QPERM (+INH) / QDEP (+INH): presence of the corresponding transporter inhibitor (as E19); for change of Papp,pig in the presence of the corresponding inhibitor / change of QDEP in the presence of the corresponding inhibitor: statistical comparison, α = 0.05, inhibitors as E19; for Papp,pig fold lower than Papp,human: vs reported ex vivo human intestine
Text: as §1

[2] = set-up: method as in earlier work; details: cited from earlier work
Solubility in KBR buffer = format: physicochemical; details: aqueous buffer, Krebs-bicarbonate ringer buffer pH 7.4
rat intestine = details: absence of inhibitor; cited from earlier work
human intestine = test system: human intestine; set-up: method as in PMID 23103351, PMID 21416475; details: absence of inhibitor; cited from earlier work
P-gp = details: substrate of P-gp, cited from earlier work
BCRP = details: cited from earlier work
MRP2 = details: cited from earlier work
PEPT1 = test system: PEPT1; set-up: method as in PMID 18824524; details: inhibitor of PEPT1; cited from earlier work
OCT1 = details: substrate of OCT1; cited from earlier work
[3] = test system: porcine intestine (ileum, jejunum); set-up: method as in PMID 30901927; details: porcine ileum and jejunum; cited from earlier work
OATP2B1 = details: cited from earlier work
[4] = pH 7.4, absence of inhibitor, substrate 100 µM (digoxin 50 µM), 38 °C, KBR, read-out: Papp,pig (−INH)
[5] = drug in acceptor compartment at t = 2 h, absence of inhibitor
[6] = drug in acceptor compartment at t = 2 h
[7] = drug retained in intestinal membrane at t = 2 h, absence of inhibitor
[8] = drug retained in intestinal membrane at t = 2 h
[9] = Krebs-bicarbonate ringer (KBR) buffer
[10] = female, Swiss noble, pig, 2 h, pH 7.4

Row | Papp at 120 min [1, 4] [×10⁻⁶ cm/s] | QPERM (−INH) (ex vivo porcine jejunum; [5]) | QPERM (+INH) (ex vivo porcine jejunum; [6]) | QDEP (−INH) (ex vivo porcine jejunum; [7]) [%] | QDEP (+INH) (ex vivo porcine jejunum; [8]) [%] | change of Papp,pig in the presence of the corresponding inhibitor (ex vivo porcine jejunum) | solubility (Solubility in KBR buffer; [9]) [µg/mL] | Structure (SMILES) | Papp,rat (−INH) (rat intestine) | Papp,human (−INH) (human intestine) | also measured
1 | 2.82 ± 0.2 | 0.50 ± 0.18 (4) % | 0.31 ± 0.12 (6) % | 1.31 ± 0.40 | 1.47 ± 0.25 | statistically significant decrease | 45000 ± 1100 (≈ 124 mM) | CC1=C(C(=O)O)N2C(=O)[C@@H](NC(=O)[C@H](N)c3ccc(O)cc3)[C@H]2SC1 [Cefadroxil] | 4.99 ± 0.50 [70] 10^−6 cm/s | – | Papp,pig fold lower than Papp,rat (ex vivo porcine jejunum; corresponding segment of the intestine): ~ 1.8 fold; log P [2]: −0.4
2 | – | – | – | – | – | significantly increased | – | C[C@H]1O[C@@H](O[C@H]2[C@@H](O)C[C@H](O[C@H]3[C@@H](O)C[C@H](O[C@H]4CC[C@@]5(C)[C@H](CC[C@@H]6[C@@H]5C[C@@H](O)[C@]5(C)[C@@H](C7=CC(=O)OC7)CC[C@]65O)C4)O[C@@H]3C)O[C@@H]2C)C[C@H](O)[C@@H]1O [Digoxin] | 6.4 ± 1.9 [14] 10^−6 cm/s | 1.44 ± 0.72 [30] 10^−6 cm/s | Papp at 120 min ([1]; pH 7.4, Papp,pig (−INH)): 0.38 ± 0.23 ×10⁻⁶ cm/s; QDEP (−INH) (ex vivo porcine jejunum; [10]): 0.62 ± 0.17%; QPERM (−INH) (ex vivo porcine jejunum; [10]): 0.21 ± 0.12 (4) %; solubility (Solubility in KBR buffer): 40 ± 10 µg/mL (≈ 0.0512 mM); Km (P-gp; ref 58): 73 µM; Km (P-gp; ref 95): 0.73 µM
3 | – | – | – | – | – | – | – | CC(C)n1c(/C=C/C(O)CC(O)CC(=O)O)c(-c2ccc(F)cc2)c2ccccc21 (stereo not drawn) [Fluvastatin] | – | – | Ki (BCRP; inhibitor of BCRP): 5.43 µM
4 | – | – | – | – | – | – | – | COc1ccc2c(c1)c(CC(=O)O)c(C)n2C(=O)c1ccc(Cl)cc1 [Indomethacin] | – | – | IC50 (MRP2; inhibitor of MRP2): 0.06 µM
5 | – | – | – | – | – | – | – | CCCCc1nc(Cl)c(CO)n1Cc1ccc(-c2ccccc2-c2nn[nH]n2)cc1 [Losartan] | – | – | IC50 (PEPT1): 52 µM; Ki (PEPT1): 24 µM
6 | 5.07 ± 0.83 | 0.62 ± 0.17 (12) % | 0.21 ± 0.03 (5) % | 1.11 ± 0.46 | 0.43 ± 0.12 | significant decrease | 19600 ± 2780 (≈ 62.5 mM) | CNC(=C[N+](=O)[O-])NCCSCc1ccc(CN(C)C)o1 [Ranitidine] | 4.00 [72] 10^−6 cm/s | 5.50 [72] 10^−6 cm/s | change of QDEP in the presence of the corresponding inhibitor (ex vivo porcine jejunum): significant decrease; Km (OCT1): 70 µM; Km (P-gp; ref 93): 270 µM; effect of P-gp inhibition on Papp,pig [3]: significant increase of Papp,pig in the ileum, but not in the jejunum
7 | – | – | – | – | – | – | – | CN(CCOc1ccc(CC2SC(=O)NC2=O)cc1)c1ccccn1 (stereo not drawn) [Rosiglitazone] | – | – | IC50 (OATP2B1; inhibitor of OATP2B1): 5.2 µM
8 | 0.91 ± 0.64 | 0.17 ± 0.09 (7) % | 0.29 ± 0.16 (6) % | 3.10 ± 1.46 | 1.30 ± 0.14 | significantly increased | 420 ± 160 (≈ 0.872 mM) | CC(C)c1nc(N(C)S(C)(=O)=O)nc(-c2ccc(F)cc2)c1/C=C/[C@@H](O)C[C@@H](O)CC(=O)O [Rosuvastatin] | – | 6.95 ± 1.50 [30] 10^−6 cm/s | change of QDEP in the presence of the corresponding inhibitor (ex vivo porcine jejunum): significantly decreased; Papp,pig fold lower than Papp,human (ex vivo porcine jejunum): ~ 9 fold; log P [2]: 0.13; Km (OATP2B1; substrate of OATP2B1): 2.4 µM
9 | 0.006 ± 0.004 | – | 0.12 ± 0.07 (9) % | 3.23 ± 0.56 | 2.47 ± 1.24 | – | 3310 ± 140 (≈ 8.31 mM) | O=C(O)c1cc(/N=N/c2ccc(S(=O)(=O)Nc3ccccn3)cc2)ccc1O [Sulfasalazine] | 2.76 ± 0.19 [73] 10^−6 cm/s | 0.09 ± 0.06 [30] 10^−6 cm/s | fold increase of Papp,pig in the presence of the inhibitor (ex vivo porcine jejunum; digoxin+verapamil, sulfasalazine+fluvastatin): 100 fold; Papp,pig fold lower than Papp,human (ex vivo porcine jejunum): ~ 10 fold; log P [2]: 0.4; Km (BCRP; substrate of BCRP): 0.7 µM
10 | 1.2 ± 0.1 | 0.17 ± 0.02 (4) % | 0.24 ± 0.10 (4) % | 0.44 ± 0.02 | 0.57 ± 0.07 | No significant difference | – | CCCCC(=O)N(Cc1ccc(-c2ccccc2-c2nnn[nH]2)cc1)[C@H](C(=O)O)C(C)C [Valsartan] | – | – | change of QDEP in the presence of the corresponding inhibitor (ex vivo porcine jejunum): significantly higher; Km (MRP2; substrate of MRP2): 30.4 µM
11 | – | – | – | – | – | – | – | CN/C(=N/CCSCc1nc[nH]c1C)NC#N [cimetidine] | – | – | effect of P-gp inhibition on Papp,pig [3]: significant increase of Papp,pig in the ileum, but not in the jejunum
